Earlier results as cited in US20100056547A1, “OPHTHALMIC COMPOSITIONS COMPRISING dDC” (ALLERGAN, INC., priority 2005, published 2010).

Columns and labels:
[1] = test system: adenoviral strains; conditions: for inhibition of adenoviral strains: Kaneko et al., J. Jpn. Ophthalmol. Soc. 107:196-201 (2003)
[2] = test system: viral conjunctivitis; conditions: topical ophthalmic administration; Gordon et al., Cornea 15(5): 546, 1996

Compound | inhibition of adenoviral strains [1] | EC50 values (ranking among NMSO3, HPMPC, dDC) ([1]; adenoviral strains, Kaneko et al. 2003) | effectiveness in treating viral conjunctivitis [2]
Nc1ccn(C[C@@H](CO)OCP(=O)(O)O)c(=O)n1 [HPMPC] | inhibited adenoviral strains |  | 
CCCCCCCCCCCCCCCCCCCCCCOCC(C)(COCCCCCCCCCCCCCCCCCCCCCC)CO[C@]1(C(=O)O)C[C@H](OS(=O)(=O)O)[C@@H](NC(C)=O)[C@H]([C@H](OS(=O)(=O)O)[C@@H](COS(=O)(=O)O)OS(=O)(=O)O)O1 [NMSO3] | inhibited adenoviral strains | lowest | 
Nc1ccn(C[C@@H](CO)OCP(=O)(O)O)c(=O)n1 [cidofavir] |  |  | effective
Nc1ccn([C@H]2CC[C@@H](CO)O2)c(=O)n1 [dDC, 2′,3′-Dideoxycytidine] | inhibited adenoviral strains |  | 
